According to US20250144036A1, “COMPOUNDS AND COMPOSITIONS FOR DELIVERY OF THERAPEUTIC AGENTS” (ModernaTX, Inc., priority 2021, published 2025):

Tests used:
[1] = system: endothelial cells; assay: Expression of mOX40L in endothelial cells following intravenous administration of loaded LNPs (flow cytometry of lung cells); type: in vivo, mice (Ail4); conditions: ionizable lipid/PEG lipid VI-4/PEG-DMG, 30 mol % cationic lipid or none, i.v., 24 h after dose
Experimental: (§1) Reagents: Digestion Media: 3 mg/mL collagenase 1, 0.1 mg/mL DNase I, Dulbecco's Modified Eagle Medium (DMEM); Wash solution: Dulbecco's phosphate-buffered saline (DPBS)+0.5% Bovine Serum Albumin (BSA); FACS Buffer: Flow Cytometry Staining Buffer (eBioscience™, ThermoFisher Scientific).
(§2) • CD31: General Endothelial Marker; • CD45: Leukocyte Common Marker; • mOX40L: Transmembrane Reporter; • tdTomato: Fluorescence Protein Reporter from Cre-mediated recombination in Ail4 mice.
(§3) Six-week-old female mice (Ail4) were aged in-house to approximately 7-8 weeks of age. With an n=5 per group, Cre mRNA (i.e., mRNA leading to expression of tdTomato) formulated LNPs were intravenously dosed via the lateral tail vein 8 days before harvest. […] Collected data was analyzed using flow cytometry analysis software (FlowJo™).
(§4) To assess the delivery of a therapeutic agent comprised in loaded LNPs of the disclosure to endothelial cells, the expression of Cre and mOX40L mRNA encapsulated in loaded LNPs of the disclosure was measured in endothelial cells following administration of the loaded LNPs to Ail4 mice as described in Example 3. […] The expression was evaluated in LNPs comprising 30 mol % of a cationic lipid of Formula (I) and in loaded LNPs not comprising the cationic of Formula (I) (i.e., LNPs not comprising a cationic lipid, or LNPs comprising dioleoyl-3-trimethylammonium propane (DOTAP)).

[2] = system: endothelial cells; assay: Expression of tdTomato (Cre mRNA) in endothelial cells following intravenous administration of loaded LNPs (flow cytometry of lung cells); type: in vivo, mice (Ail4); conditions: ionizable lipid/PEG lipid VI-4/PEG-DMG, 30 mol % cationic lipid or none, i.v., 8 days before harvest
Experimental: as §1, §2, §3, §4

Q: `CCCCCCCC/C=C\CCCCCCCC(=O)OCC(C[N+](C)(C)C)OC(=O)CCCCCCC/C=C\CCCCCCCC` (centres unmarked) [DOTAP, dioleoyl-3-trimethylammonium propane] was tested. Which “% Endothelial cells Average” value [1] did it give?
A: 0%

Q: And the “% Endothelial cells Average” value [2]?
A: 0%
